In patent publication US20070003525A1, “Hydrogel compositions comprising nucleus pulposus tissue” (priority 2003, published 2007):

How the values were obtained:
Assay type in all cases: cell-based
[1] = test system: Sheep nucleus chondrocytes; experiment: MTT cytotoxicity of the photo-initiating system
Experimental: Sheep nucleus chondrocytes were seeded in a 12-well plate at 20,000 cells/well and incubated with TCM. After allowing cells to adhere for over 48 hours, spent media was replaced with TCM containing 0 or 1000 ppm Irgacure 2959. SNCs were then exposed to long wave ultraviolet light at 365 nm wavelength for different lengths of time, followed by incubation at 37° C. MTT assay was performed at 1, 5, and 24 hours post UV exposure to assess viability of cells. The principle of the assay is similar to the MTS assay mentioned before, except that a different tetrazolium compound is used in this method.

[2] = test system: Sheep nucleus cells (SNCs)
Experimental: The monomer solution was poured into molds and photo-polymerized using long-wave ultraviolet light at 365 nm wavelength. Polymerized hydrogels were placed into tissue culture inserts which were then placed above seeded SNCs. Cytotoxicity of unpolymerized matrix was also determined, by including inserts containing unpolymerized monomer solution. SNC seeded wells containing empty inserts served as controls. SNCs and inserts were completely immersed in TCM. […] The MTS assay measures viability of cells by a calorimetric method, wherein the MTS tetrazolium compound is bio reduced by cells into a colored formazan product which is soluble in TCM. The conversion is accomplished by dehydrogenase enzymes present in metabolically active cells.

[3] = test system: human intervertebral disc nucleus pulposus cells; experiment: Alcian blue assay of proteoglycan synthesis, human cells; conditions: 10 ng/ml
Experimental: (§1) Human intervertebral disc cells from Example 9 were seeded and grown in 24 well plates in TCM in the presence or absence of exogenous growth factors. At various time points, TCM was aspirated out from the wells and the wells washed 3 times with PBS. The cells were then fixed with 4% paraformaldehyde (pH 7.4) for 10 min. The fixed cells were washed 2 times with PBS and then stained overnight with 0.5% Alcian blue in 0.1N hydrochloric acid (pH 1.5). After overnight staining, excess stain was rinsed out with 3 rinses of PBS. The remaining Alcian blue stain (bound to proteoglycans) was dissolved overnight into 6 M guanidine hydrochloride and the absorbance at 630 nm was measured using a spectrophotometer, providing an indication of the induction of matrix production by exogenous growth factors in human nucleus pulposus cells.
TGF-β1 and BP were tested for their effects on stimulation of proteoglycan synthesis in human nucleus cells. Human intervertebral disc nucleus pulposus cells obtained from Disc L5-S1 of a patient were cultured as described in Examples 8 and 9 and seeded into 24-well plates. After the cells adhered to the well surface, multiple dilutions of different growth factors were added. The concentrations of growth factors tested were 10 ng/ml TGF-β1, and 10 and 20 μg/ml of BP. The dilutions were prepared in TCM. The cells were fixed after 5 and 8 days of continuous exposure to growth factors and proteoglycans synthesized were detected by the Alcian blue assay as described in Example 10.
A second experiment to test the effects of TGF-β1 and BP on proteoglycan synthesis was performed on a different human patient from that described in Example 14. Human intervertebral disc cells obtained from another patient were cultured as described in Examples 8 and 9 and seeded into 24 well plates. Growth factors were added after the cells were allowed to adhere overnight. […] After 6 and 9 days the cells were fixed and the amount of proteoglycans synthesized was measured by the Alcian blue assay as described in Example 10.

[4] = test system: sheep intervertebral disc nucleus pulposus cells; experiment: ELISA of Type II collagen and chondroitin-6-sulfate production; conditions: 7 days, 10 ng/ml
Experimental: To detect specific antigenic epitopes in the synthesized matrix, sheep intervertebral nucleus pulposus cells from Example 9, seeded and grown in monolayer, were fixed in 2% glutaraldehyde for 1 hour at room temperature. The fixed cells were washed 3 times with TBS for 5 min. each. To block non-specific antibody binding, the cells were incubated in a solution of Tris buffered saline (TBS) containing 1 mM ethylene-diamine-tetraacetic acid (EDTA), 0.05% Tween-20™, and 0.25% bovine serum albumin for 1 hour. The blocking step was followed by 3 washes with TBS for 5 min. each. The cells were incubated with the primary antibody at room temperature for 2.5 hours, and the excess primary antibody was removed by 3 washes with TBS for 5 min. each. A second incubation with blocking buffer was performed for 10 min., followed by 3 washes with TBS. […] The bound primary and secondary antibodies were detected by addition of an enzyme-specific substrate which produced a colored reaction. The colorimetric measurement was performed using a spectrophotometer, providing a quantitative measure of the presence of the bound antibodies. […]
After incubation with growth factors for 7 days, cell cultures were fixed in 2% glutaraldehyde and the quantity of Type II collagen and chondroitin-6-sulfate produced in the cell cultures was detected by ELISA according to the procedure described in Example 11. […]

[5] = test system: baboon intervertebral disc nucleus pulposus cells; experiment: Alcian blue assay of proteoglycan synthesis, baboon cells; conditions: 8 days, 10 ng/ml
Experimental: as §1
The foregoing procedure was also applied to sheep and baboon intervertebral nucleus pulposus cells from Example 9 to obtain an indication of the induction of matrix production by exogenous growth factors in sheep and baboon nucleus pulposus cells.
TGF-β1 and BP were tested for their effects on stimulation of proteoglycan synthesis in baboon nucleus cells. […] The cells were fixed after 4 and 8 days of continuous exposure to growth factors, and proteoglycan synthesis was detected by the Alcian blue assay as described in Example 10.

[6] = test system: sheep intervertebral disc nucleus pulposus cells; experiment: Alcian blue assay of proteoglycan synthesis, sheep cells; conditions: 10 ng/ml
Experimental: as §1, with “cells. […]” for “cells.”
Transforming growth factor-β1 (TGF-β1) and a mixture of bone-derived protein growth factors (BP) produced according to U.S. Pat. Nos. 5,290,763, 5,371,191 and 5,563,124, were tested for their effects on stimulation of proteoglycan synthesis in ovine nucleus pulposus cells. […] At these time points, the cells were fixed and the amount of proteoglycan synthesis was measured by the Alcian blue assay as described in Example 10.

Compound | cytotoxicity (MTT) ([1]; 1000 ppm in TCM, by itself (no free radical production), FIG. 29: 24 hours post-UV) | cell death by free radicals from UV light with Irgacure 2959 (MTT) ([1]; 1000 ppm plus 365 nm UV for different lengths of time) | cytotoxicity (MTS, absorbance at 570 nm) [2] | increase in Alcian blue staining over the control ([3]; Example 14 patient, 8 days) [%] | more proteoglycans than control ([3]; Example 15 patient, 6 days) [%] | increased proteoglycan production over controls ([3]; Example 15 patient, 9 days) [%] | increased production of Type II collagen over controls [4] [%] | increased production of chondroitin-6-sulfate over controls [4] [%] | increase in proteoglycan synthesis over the control [5] [%] | increase in proteoglycan synthesis above 0.5% serum control ([6]; 7 day) | increase in proteoglycan synthesis above 0.5% serum control ([6]; 10 day) [%]
CC(C)(O)C(=O)c1ccc(OCCO)cc1 [Irgacure 2959] | not significantly cytotoxic | significant only at 5 and 10 min of UV exposure | cytocompatible |  |  |  |  |  |  |  | 
C=CN1CCCCCC1=O [vinyl caprolactam] |  |  | cytocompatible |  |  |  |  |  |  |  | 
Transforming growth factor-β1 [TGF-β1] |  |  |  | 42 | 54 | 74 | 115 | 800 | 21 | not significant | 52
